{
  "source": "patent US11999786B2",
  "about": "“Anti-CD48 antibodies, antibody drug conjugates, and uses thereof” (Novartis AG, priority 2020, dated 2024)",
  "format_in_all_cases": "cell-based",
  "key": {"[1]": {"test_system": "KMS-27, NCI-H929 and KMS-21-BM cancer cell lines", "experiment": "Internalization and cell proliferation assay, statements across the three cancer cell lines", "details": "range across the three cell lines; dosed directly, 5 days, CellTiter-Glo", "description": "(§1) The internalization activity of CD48 antibodies were tested against three endogenous cancer cell lines: KMS-27: JCRB No. JCRB1188 cultured in RPMI-1640+10% FBS; NCI-H929: ATCC No. CRL-9068 cultured in RPMI-1640+10% FBS+0.05 mM 2-mercaptoethanol; and KMS-21-BM: JCRB No. JCRB1185 cultured in RPMI-1640+10% FBS.\nCD48 antibodies were synthesized and expressed generally as described in Example 5. Cell lines were cultured in media that is optimal for their growth at 5% CO2, 37° C. in a tissue culture incubator. Prior to seeding for the proliferation assay, the cells were split at least 2 days before the assay to ensure optimal growth density. On the day of seeding, cell viability and cell density were determined using a cell counter (Vi-Cell XR Cell Viability Analyzer, Beckman Coulter). Cells with higher than 85% viability were seeded in white clear bottom 384-well TC treated plates (Corning cat. #3765). […] Plates were incubated at 5% CO2, 37° C. for 5 days in a tissue culture incubator, after which cell viability was assessed through the addition of 25 μL of CellTiter Glo® (Promega, cat #G7573), a reagent which lyses cells and measures total adenosine triphosphate (ATP) content. Plates were incubated at room temperature for 10 minutes to stabilize luminescent signals prior to reading using a luminescence reader (EnVision Multilabel Plate Reader, PerkinElmer). […]"}, "NCI-H929": {"test_system": "NCI-H929", "experiment": "Internalization and cell proliferation assay (CellTiter-Glo, with secondary anti-human Fc-VC-MMAE ADC)", "description": "as §1\n(§2) CD48 antibodies were synthesized and expressed generally as described in Example 5. Cell lines were cultured in media that is optimal for their growth at 5% CO2, 37° C. in a tissue culture incubator. Prior to seeding for the proliferation assay, the cells were split at least 2 days before the assay to ensure optimal growth density. On the day of seeding, cell viability and cell density were determined using a cell counter (Vi-Cell XR Cell Viability Analyzer, Beckman Coulter). Cells with higher than 85% viability were seeded in white clear bottom 384-well TC treated plates (Corning cat. #3765). Cells were seeded at a density of 1,000 cells per well in 40 μL of standard growth media. Plates were incubated at 5% CO2, 37° C. overnight in a tissue culture incubator. The next day free MMAE payload, a CD48A-CysMab-VC-MMAE ADC (synthesis described in Example 5), CD48 antibodies, and a non-targeting isotype antibody were prepared at 10× in standard growth media. The MMAE free payload and CD48A-CysMab-VC-MMAE ADC were added to the cells resulting in final concentrations of 0.007-150 nM and a final volume of 50 μL per well. The prepared antibody treatments, including CD48 IgGs and a non-targeting isotype antibody, were then added to the cells resulting in final concentrations of 0.001-20 nM and a final volume of 45 μL per well. An anti-human Fc-VC-MMAE ADC (DAR2.0) was prepared at 10× in standard growth media. The prepared ADC was then added to the cells resulting in a final concentration of 60 nM and a final volume of 50 μL per well. Each drug concentration was tested in quadruplets. Plates were incubated at 5% CO2, 37° C. for 5 days in a tissue culture incubator, after which cell viability was assessed through the addition of 25 μL of CellTiter Glo® (Promega, cat #G7573), a reagent which lyses cells and measures total adenosine triphosphate (ATP) content. Plates were incubated at room temperature for 10 minutes to stabilize luminescent signals prior to reading using a luminescence reader (EnVision Multilabel Plate Reader, PerkinElmer). To evaluate the effect of the drug treatments, luminescent counts from wells containing untreated cells (100% viability) were used to normalize treated samples. A variable slope model was applied to fit a nonlinear regression curve to the data in GraphPad PRISM version 7.02 software. IC50 and Amax values were extrapolated from the resultant curves.\n(§3) The dose response curves of representative cancer cell lines are shown in FIG. 2A (KMS-27), FIG. 2B (NCI-H929), and FIG. 2C (KMS-21-BM)."}, "KMS-27": {"test_system": "KMS-27", "experiment": "Internalization and cell proliferation assay (CellTiter-Glo, with secondary anti-human Fc-VC-MMAE ADC)", "details": "KMS-27, CellTiter-Glo", "description": "as §1, §2, §3"}, "KMS-21-BM": {"test_system": "KMS-21-BM", "experiment": "Internalization and cell proliferation assay (CellTiter-Glo, with secondary anti-human Fc-VC-MMAE ADC)", "description": "as §1, §2, §3"}},
  "note": "Non-standard residues stand in square brackets, D forms with d. Residues, ends and D or L forms follow the SMILES beside them. *: point of attachment. Dolaproine = CO[C@@H]([C@@H]1CCCN1)[C@@H](C)C(=O)O; Dil = CC[C@H](C)[C@H](NC)[C@@H](CC(=O)O)OC; X1 = C[C@@H](N*)[C@@H](O)c1ccccc1; NMeV = CN[C@H](C(=O)O)C(C)C",
  "data": [
    {"compound": "CC[C@H](C)[C@@H]([C@@H](CC(=O)N1CCC[C@H]1[C@H](OC)[C@@H](C)C(=O)N[C@H](C)[C@@H](O)c1ccccc1)OC)N(C)C(=O)[C@@H](NC(=O)[C@@H](NC)C(C)C)C(C)C", "note": "[MMAE] (H-[NMeV]V[Dil][Dolaproine]-X1)", "values": [
      {"measurement": "IC50", "setting": "[1]", "result": "0.021 to 0.116", "unit": "nM"},
      {"measurement": "IC50", "setting": "NCI-H929", "result": 0.116, "unit": "nM"},
      {"measurement": "Span (Amax)", "setting": "NCI-H929", "result": 88.5},
      {"measurement": "IC50", "setting": "KMS-27", "result": 0.021, "unit": "nM"},
      {"measurement": "Span (Amax)", "setting": "KMS-27", "result": 83.9},
      {"measurement": "IC50", "setting": "KMS-21-BM", "result": 0.024, "unit": "nM"},
      {"measurement": "Span (Amax)", "setting": "KMS-21-BM", "result": 72.9}
    ]}
  ]
}
